Assay results published in PubChem BioAssay AID588626 (NMMLSC, 2011).
Calls of active or inactive are those of the source.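 How the source made its calls: active means half-effect potency at or under 10 µM with a response span of at least 30% after curve fit checks such as Hill slope 0.5 to 2; inactive means the rest.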

Biological target: Cell division control protein 42 homolog (Homo sapiens) (UniProt P60953)
Test: wild-type Cdc42 fluorescent nucleotide binding blockers – biochemical, wildtype, bead multiplex, flow cytometry, round 2, SAR follow-up (AID 588626)
Conditions: Bead-based flow cytometry, Bodipy-FL-GTP binding, EDTA buffer; for % response (GTP binding remaining): at 100 µM (top of the series)

Chain of Cell division control protein 42 homolog (Homo sapiens) (P60953 whole entry, looked up): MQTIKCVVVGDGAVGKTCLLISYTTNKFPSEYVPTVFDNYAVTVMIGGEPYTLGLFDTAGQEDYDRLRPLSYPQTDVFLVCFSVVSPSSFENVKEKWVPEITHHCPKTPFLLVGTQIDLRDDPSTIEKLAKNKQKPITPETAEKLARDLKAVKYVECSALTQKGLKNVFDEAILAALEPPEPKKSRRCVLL

Row | Compound | % response (GTP binding remaining) | EC50
1 | CC1(C)Cc2c(sc(NC(=S)NC(=O)c3ccc(Br)cc3)c2C(=O)O)CO1 | inactive | –
2 | CC1(C)CCc2sc(NC(=S)NC(=O)c3ccccc3)c(C(=O)O)c2C1 | inactive | –
3 | COc1ccccc1C(=O)NC(=S)Nc1sc2c(c1C(=O)O)CC(C)(C)OC2 | inactive | –
4 | CC1Cc2c(sc(NC(=S)NC(=O)c3ccccc3)c2C(=O)O)CO1 (stereo not drawn) | – | 17.8 µM
5 | CC1(C)Cc2c(sc(NC(=O)NC(=O)c3ccccc3)c2C(=O)O)CO1 | inactive | –
6 | Cc1cccc(C(=O)NC(=S)Nc2sc3c(c2C(=O)O)CC(C)(C)OC3)c1 | – | 5.87 µM
7 | CCC1(C)Cc2c(sc(NC(=S)NC(=O)c3ccccc3)c2C(=O)O)CO1 (stereo not drawn) | inactive | –
8 | CC1(C)Cc2c(sc(NC(=S)Nc3ccccc3)c2C(=O)O)CO1 | inactive | –
9 | COc1cccc(C(=O)NC(=S)Nc2sc3c(c2C(=O)O)CC(C)(C)OC3)c1 | inactive | –
10 | Cc1ccccc1C(=O)NC(=S)Nc1sc2c(c1C(=O)O)CC(C)(C)OC2 | – | 2.66 µM
11 | CC1(C)Cc2c(sc(NC(=S)NC(=O)c3ccco3)c2C(=O)O)CO1 | inactive | –
12 | CC1(C)Cc2c(sc(NC(=S)NC(=O)c3ccc(F)cc3)c2C(=O)O)CO1 | inactive | –
13 | CC1(C)Cc2c(sc(NC(=S)NC(=O)c3ccccc3F)c2C(=O)O)CO1 | – | 7.37 µM
14 | Cc1ccc(C(=O)NC(=S)Nc2sc3c(c2C(=O)O)CC(C)(C)OC3)cc1 | – | 0.528 µM
15 | COc1ccc(C(=O)NC(=S)Nc2sc3c(c2C(=O)O)CC(C)(C)OC3)cc1 | inactive | –
16 | CC1(C)Cc2c(sc(NC(=S)NC(=O)c3cccc(Br)c3)c2C(=O)O)CO1 | – | 19.5 µM
17 | CC1(C)Cc2c(sc(NC(=S)NC(=O)c3cccs3)c2C(=O)O)CO1 | inactive | –
18 | CC1(C)Cc2c(sc(NC(=S)NC(=O)c3ccccc3Br)c2C(=O)O)CO1 | inactive | –
19 | CC1(C)Cc2c(sc(NC(=S)NC(=O)c3cccc(F)c3)c2C(=O)O)CO1 | inactive | –
20 | CC(C)(C)C1Cc2c(sc(NC(=S)NC(=O)c3ccccc3)c2C(=O)O)CO1 (stereo not drawn) | – | 1.57 µM
21 | CC1(C)Cc2c(sc(NC(=S)NC(=O)C3CCCCC3)c2C(=O)O)CO1 | – | 2.64 µM
22 | O=C(NC(=S)Nc1sc2c(c1C(=O)O)CCOC2)c1ccccc1 | inactive | –
23 | O=C(NC(=S)Nc1sc2c(c1C(=O)O)CC1(CCCC1)OC2)c1ccccc1 | inactive | –
